# Experimental data from BindingDB's records for doi:10.1016/j.ejmech.2014.07.015 (Tianjin University, 2014).
# Residues, ends and D or L forms follow the SMILES beside them.
# Target: Angiotensin-converting enzyme (Homo sapiens, UniProt P12821)
# Assay: Inhibition of ACE (unknown origin)
# Chain of Angiotensin-converting enzyme (P12821 whole entry): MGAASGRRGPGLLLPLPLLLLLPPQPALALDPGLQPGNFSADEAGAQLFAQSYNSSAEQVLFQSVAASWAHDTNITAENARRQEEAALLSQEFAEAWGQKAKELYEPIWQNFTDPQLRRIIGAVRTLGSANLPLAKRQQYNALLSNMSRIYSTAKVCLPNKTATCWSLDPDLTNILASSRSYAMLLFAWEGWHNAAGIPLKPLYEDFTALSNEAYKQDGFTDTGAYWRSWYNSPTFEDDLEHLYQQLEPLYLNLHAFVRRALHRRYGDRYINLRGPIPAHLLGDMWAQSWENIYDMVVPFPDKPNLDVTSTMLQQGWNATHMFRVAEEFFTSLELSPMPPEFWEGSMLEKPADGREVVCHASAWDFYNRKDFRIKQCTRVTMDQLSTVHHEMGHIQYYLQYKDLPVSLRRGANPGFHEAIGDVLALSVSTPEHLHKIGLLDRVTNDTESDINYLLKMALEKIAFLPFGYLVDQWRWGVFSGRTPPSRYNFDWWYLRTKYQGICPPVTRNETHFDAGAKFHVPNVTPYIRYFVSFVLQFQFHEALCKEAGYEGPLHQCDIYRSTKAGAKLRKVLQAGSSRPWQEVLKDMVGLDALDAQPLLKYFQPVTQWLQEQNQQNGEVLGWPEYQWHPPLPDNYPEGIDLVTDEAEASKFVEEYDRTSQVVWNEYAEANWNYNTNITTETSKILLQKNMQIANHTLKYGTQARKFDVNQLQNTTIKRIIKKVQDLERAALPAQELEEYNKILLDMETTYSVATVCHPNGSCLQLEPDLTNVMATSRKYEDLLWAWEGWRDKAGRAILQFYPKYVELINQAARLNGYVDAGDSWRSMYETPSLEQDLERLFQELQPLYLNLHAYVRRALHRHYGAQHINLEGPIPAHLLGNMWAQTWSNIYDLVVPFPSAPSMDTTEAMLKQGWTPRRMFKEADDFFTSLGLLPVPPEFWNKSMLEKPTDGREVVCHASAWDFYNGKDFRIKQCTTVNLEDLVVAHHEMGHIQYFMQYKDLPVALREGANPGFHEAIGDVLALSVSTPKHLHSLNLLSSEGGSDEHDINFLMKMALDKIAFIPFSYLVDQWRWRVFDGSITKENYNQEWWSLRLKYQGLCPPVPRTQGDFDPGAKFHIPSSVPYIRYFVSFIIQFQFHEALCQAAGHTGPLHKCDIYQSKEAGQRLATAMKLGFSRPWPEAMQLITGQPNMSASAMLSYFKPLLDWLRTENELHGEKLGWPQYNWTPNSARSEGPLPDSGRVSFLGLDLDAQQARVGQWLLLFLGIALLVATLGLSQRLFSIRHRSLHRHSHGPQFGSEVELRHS
row,IC50,Compound
1,32.3 µM,CC(C)C[C@H](N)C(=O)N[C@@H](Cc1ccc(O)cc1)C(=O)O
2,4.67 µM,CC[C@H](C)[C@H](N)C(=O)N[C@@H](Cc1c[nH]c2ccccc12)C(=O)O
3,93.3 µM,N=C(N)NCCC[C@H](N)C(=O)N[C@@H](Cc1ccccc1)C(=O)O
4,3.09 µM,CC(C)[C@H](NC(=O)[C@H](C)N)C(=O)NCC(=O)N1CCC[C@H]1C(=O)O (H-AVGP-OH)
5,20.8 µM,NC(N)=NCCC[C@H](N)C(=O)N1CCC[C@H]1C(=O)O (H-Arg-Pro-OH)
6,15.8 µM,NC(N)=NCCC[C@H](N)C(=O)N[C@@H](Cc1c[nH]c2ccccc12)C(=O)O (H-Arg-Trp-OH)
7,46.7 µM,NC(=O)C[C@H](N)C(=O)N[C@@H](Cc1ccccc1)C(=O)O (H-Asn-Phe-OH)
8,4.78 µM,CC(C)C[C@H](NC(=O)[C@@H](N)CC(=O)O)C(=O)N1CCC[C@H]1C(=O)O (H-Asp-Leu-Pro-OH)
9,10 µM,CC(C)[C@H](NC(=O)[C@@H](N)Cc1ccccc1)C(=O)N[C@@H](C)C(=O)N1CCC[C@H]1C(=O)O (H-FVAP-OH)
10,3.89 µM,C[C@H](NC(=O)[C@H](Cc1c[nH]c2ccccc12)NC(=O)CN)C(=O)N1CCC[C@H]1C(=O)O (H-GWAP-OH)
11,19.9 µM,N=C(N)NCCC[C@H](NC(=O)CN)C(=O)N1CCC[C@H]1C(=O)O (H-Gly-Arg-Pro-OH)
12,1.58 µM,CC[C@H](C)[C@H](N)C(=O)N[C@@H](CCC(=O)O)C(=O)N1CCC[C@H]1C(=O)O (H-Ile-Glu-Pro-OH)
13,6.91 µM,CC[C@H](C)[C@H](N)C(=O)N[C@@H](CCCCN)C(=O)N1CCC[C@H]1C(=O)O (H-Ile-Lys-Pro-OH)
14,3.46 µM,CC(C)C[C@H](N)C(=O)N[C@@H](C)C(=O)N1CCC[C@H]1C(=O)O (H-Leu-Ala-Pro-OH)
15,57.5 µM,CC(C)C[C@H](N)C(=O)N[C@@H](CC(N)=O)C(=O)N1CCC[C@H]1C(=O)O (H-Leu-Asn-Pro-OH)
16,1.9 µM,CC(C)C[C@H](N)C(=O)N[C@@H](CCC(=O)O)C(=O)N1CCC[C@H]1C(=O)O (H-Leu-Glu-Pro-OH)
17,3.98 µM,CC(C)C[C@H](N)C(=O)N[C@@H](CCCCN)C(=O)N1CCC[C@H]1C(=O)O (H-Leu-Lys-Pro-OH)
18,1.69 µM,CC(C)C[C@H](N)C(=O)N[C@@H](CO)C(=O)N1CCC[C@H]1C(=O)O (H-Leu-Ser-Pro-OH)
19,6.6 µM,CC(C)C[C@H](N)C(=O)N[C@@H](Cc1ccc(O)cc1)C(=O)N1CCC[C@H]1C(=O)O (H-Leu-Tyr-Pro-OH)
20,66 µM,CSCC[C@H](N)C(=O)N[C@@H](CC(N)=O)C(=O)N1CCC[C@H]1C(=O)O (H-Met-Asn-Pro-OH)
21,3.8 µM,C[C@H](NC(=O)[C@@H](N)Cc1ccccc1)C(=O)N1CCC[C@H]1C(=O)O (H-Phe-Ala-Pro-OH)
22,12 µM,NC(=O)CC[C@H](NC(=O)[C@@H](N)Cc1ccccc1)C(=O)N1CCC[C@H]1C(=O)O (H-Phe-Gln-Pro-OH)

row,IC50,Compound
1,12 µM,N[C@@H](Cc1ccccc1)C(=O)N[C@@H](CCC(=O)O)C(=O)N1CCC[C@H]1C(=O)O (H-Phe-Glu-Pro-OH)
2,10 µM,CC(C)[C@H](N)C(=O)N[C@@H](CO)C(=O)N[C@@H](CO)C(=O)N1CCC[C@H]1C(=O)O (H-VSSP-OH)
3,2.18 µM,CC(C)[C@H](N)C(=O)N[C@@H](CCCNC(=N)N)C(=O)N1CCC[C@H]1C(=O)O (H-Val-Arg-Pro-OH)
4,26.3 µM,CC(C)[C@H](N)C(=O)NCC(=O)N1CCC[C@H]1C(=O)O (H-Val-Gly-Pro-OH)
5,28.8 µM,CSCC[C@H](NC(=O)[C@@H](N)C(C)C)C(=O)N1CCC[C@H]1C(=O)O (H-Val-Met-Pro-OH)
6,10 µM,CC(C)[C@H](N)C(=O)N[C@@H](CO)C(=O)N1CCC[C@H]1C(=O)O (H-Val-Ser-Pro-OH)
7,75.8 µM,C[C@H](N)C(=O)N[C@@H](Cc1ccccc1)C(=O)O [2-(2-Amino-propionylamino)-3-phenyl-propionic acid]
8,25.1 µM,NCC(=O)N[C@@H](Cc1c[nH]c2ccccc12)C(=O)O [2-((S)-2-Amino-acetylamino)-3-(1H-indol-3-yl)-propionic acid] (H-Gly-Trp-OH)
9,6.16 µM,CC[C@H](C)[C@H](N)C(=O)N[C@@H](Cc1ccc(O)cc1)C(=O)O [(S)-2-((S)-2-Amino-3-(S)-methyl-pentanoylamino)-3-(4-hydroxy-phenyl)-propionic acid] (H-Ile-Tyr-OH)
10,9.12 µM,CC(C)[C@H](N)C(=O)N[C@@H](Cc1ccccc1)C(=O)O [(S)-2-((S)-2-Amino-3-methyl-butyrylamino)-3-phenyl-propionic acid] (H-Val-Phe-OH)
11,12 µM,C[C@H](N)C(=O)N[C@@H](Cc1c[nH]c2ccccc12)C(=O)O [(S)-2-((S)-2-Amino-propionylamino)-3-(1H-indol-3-yl)-propionic acid] (H-Ala-Trp-OH)
12,19 µM,C[C@H](N)C(=O)N[C@@H](Cc1ccc(O)cc1)C(=O)O [(S)-2-((S)-2-Amino-propionylamino)-3-(4-hydroxy-phenyl)-propionic acid] (H-Ala-Tyr-OH)
13,15.8 µM,CC(C)[C@H](N)C(=O)N[C@@H](Cc1ccc(O)cc1)C(=O)O [Ang(3-4)] (H-Val-Tyr-OH)
14,1.9 µM,CC(C)C[C@H](N)C(=O)N[C@@H](CCC(N)=O)C(=O)N1CCC[C@H]1C(=O)O [CHEBI:73270] (H-Leu-Gln-Pro-OH)
15,32.3 µM,NC(=O)C[C@H](N)C(=O)N[C@@H](Cc1ccc(O)cc1)C(=O)O [CHEBI:73427] (H-Asn-Tyr-OH)
16,100 µM,N[C@@H](CC(=O)O)C(=O)N[C@@H](Cc1ccc(O)cc1)C(=O)O [CHEBI:73455] (H-Asp-Tyr-OH)
17,17.3 µM,CC(C)C[C@H](N)C(=O)N[C@@H](Cc1c[nH]c2ccccc12)C(=O)O [CHEBI:73590]
18,25.1 µM,N[C@@H](Cc1ccccc1)C(=O)N[C@@H](Cc1ccc(O)cc1)C(=O)O [CHEBI:73637] (H-Phe-Tyr-OH)
19,66 µM,N[C@@H](CO)C(=O)N[C@@H](Cc1ccc(O)cc1)C(=O)O [CHEBI:73652] (H-Ser-Tyr-OH)
20,51.2 µM,N=C(N)NCCC[C@H](N)C(=O)N[C@@H](Cc1ccc(O)cc1)C(=O)O [CHEBI:73822] (H-Arg-Tyr-OH)
21,26.3 µM,N[C@@H](Cc1c[nH]cn1)C(=O)N[C@@H](Cc1ccc(O)cc1)C(=O)O [CHEBI:74059] (H-His-Tyr-OH)
22,21.8 µM,NCCCC[C@H](N)C(=O)N1CCC[C@H]1C(=O)O [CHEBI:74567] (H-Lys-Pro-OH)

row,IC50,Compound
1,44.6 µM,CSCC[C@H](N)C(=O)N[C@@H](Cc1ccccc1)C(=O)O [CHEBI:74708] (H-Met-Phe-OH)
2,10 µM,CSCC[C@H](N)C(=O)N[C@@H](Cc1c[nH]c2ccccc12)C(=O)O [CHEBI:74709] (H-Met-Trp-OH)
3,89.1 µM,C[C@@H](O)[C@H](N)C(=O)N[C@@H](Cc1ccccc1)C(=O)O [CHEBI:74862] (H-Thr-Phe-OH)
4,2.69 µM,CC[C@H](C)[C@H](N)C(=O)N[C@@H](C)C(=O)N1CCC[C@H]1C(=O)O [Ile-Ala-Pro] (H-Ile-Ala-Pro-OH)
5,79.4 µM,H-AVPYP-OH
6,61.6 µM,H-DYGLYP-OH
7,6.02 µM,H-FFVAP-OH
8,2.18 µM,H-IAYKP-OH
9,64.5 µM,H-LAYFYP-OH
10,6.02 µM,H-LHLPAP-OH
11,1.9 µM,H-LHLPGP-OH
12,3.71 µM,H-LHLPLP-OH
13,2.29 µM,H-LHLPYP-OH
14,8.91 µM,H-LHLWLP-OH
15,19 µM,H-LHLYLP-OH
16,45.7 µM,H-RPQIPP-OH
17,74.1 µM,H-SKVPP-OH
18,4.46 µM,H-VHLAP-OH
19,18.1 µM,H-VHLPP-OH
20,30.9 µM,H-VLPIP-OH
21,36.3 µM,H-VLPYP-OH

row,Compound,IC50
1,NCCCC[C@H](N)C(=O)N[C@@H](Cc1ccccc1)C(=O)O [CHEBI:73605],28.1 µM
